Reference: patent publication US6677368B2, “4-aryl substituted indolinones” (Sugen, Inc., priority 2000, dated 2004)

Legend:
Format in all cases: biochemical
[1] = target: FGFR1 (Homo sapiens, UniProt P11362); test: FGFR1 bioassay (ELISA, in vitro kinase activity); settings: purified GST-FGFR1, poly(Glu-Tyr) substrate
Protocol: This assay is used to measure the in vitro kinase activity of FGF1-R in an ELISA assay.
1. Costar 96-well ELISA plates (Corning Catalog #3369).
2. Poly(Glu-Tyr) (Sigma Catalog #P0275).
4. 50 mM Hepes Buffer Solution.
5. Blocking Buffer (5% BSA/PBS).
6. Purified GST-FGFR1 (SUGEN, Inc.)
7. Kinase Dilution Buffer. Mix 500 μl 1M Hepes (GIBCO), 20 μl 5% BSA/PBS, 10 μl 100 mM sodium orthovanadate and 50 μl 5M NaCl.
9. ATP/MnCl2 phosphorylation mix: mix 20 μL ATP, 400 μL 1M MnCl2 and 9.56 ml dH2O.
10. NUNC 96-well V bottom polypropylene plates (Applied Scientific Catalog #AS-72092).
12. 0.05% TBST Add 500 μL TWEEN to 1 liter TBS.
13. Rabbit polyclonal anti-phosphotyrosine serum (SUGEN, Inc.).
14. Goat anti-rabbit IgG peroxidase conjugate (Biosource, Catalog #ALI0404).
1. Coat Costar 96 well ELISA plates with 1 μg per well Poly(Glu-Tyr) in 100 μl PBS. Store overnight at 4° C.
2. Wash coated plates once with PBS.
3. Add 150 μL of 5%BSA/PBS Blocking Buffer to each well. Incubate, with shaking, for 1 hr at room temperature.
4. Wash plate 2× with PBS, then once with 50 mM Hepes. Pat plates on a paper towel to remove excess liquid and bubbles.
5. Add 25 μL of 0.4 mM test compound in 4% DMSO or 4% DMSO alone (controls) to plate.
6. Dilute purified GST-FGFR1 in Kinase Dilution Buffer (5 ng kinase/50 μl KDB/well).
7. Add 50 μL of diluted kinase to each well.
8. Start kinase reaction by adding 25 μl/well of freshly prepared ATP/Mn++ (0.4 ml 1M MnCl2, 40 μL 10 mM ATP, 9.56 ml dH2O), freshly prepared).
9. Stop reaction with 25 μL of 0.5M EDTA.
10. Wash plate 4× with fresh TBST.
11. Make up Antibody Dilution Buffer: For 50 ml, mix 5 ml of 5% BSA, 250 μl of 5% milk and 50 μl of 100 mM sodium vanadate, bring to final volume with 0.05% TBST.
12. Add 100 μl per well of anti-phosphotyrosine (1:10000 dilution in ADB). Incubate, with shaking for 1 hr. at room temperature.
14. Add 100 μl per well of Biosource Goat anti-rabbit IgG peroxidase conjugate (1:6000 dilution in ADB). Incubate, with shaking for 1 hr. at room temperature.
15. Wash as in step 10 and then with PBS to remove bubbles and excess TWEEN.
16. Add 100 μl of ABTS/H2O2 solution to each well.
17. Incubate, with shaking, for 10 to 20 minutes. Remove any bubbles.
18. Read assay on Dynatech MR7000 ELISA reader: test filter at 410 nM, reference filter at 630 nM.

[2] = target: T1, MET (Homo sapiens, UniProt P08581); test: MET transphosphorylation assay; settings: GST fusion protein containing the Met kinase domain, poly(glu-tyr) substrate
T1 construct: Purified GST fusion protein containing the Met kinase domain, SUGEN, Inc
T1 sequence (P08581 1078-1345 limits assumed): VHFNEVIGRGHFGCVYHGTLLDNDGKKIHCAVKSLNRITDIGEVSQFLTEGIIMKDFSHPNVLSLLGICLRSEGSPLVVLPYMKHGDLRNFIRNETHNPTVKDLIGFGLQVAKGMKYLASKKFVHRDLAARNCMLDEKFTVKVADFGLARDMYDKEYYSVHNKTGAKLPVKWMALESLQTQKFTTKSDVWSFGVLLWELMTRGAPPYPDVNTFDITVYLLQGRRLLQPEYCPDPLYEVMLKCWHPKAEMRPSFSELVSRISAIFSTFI
Protocol: MET TRANSPHOSPHORYLATION ASSAY
This assay is used to measure phosphotyrosine levels on a poly(glutamic acid:tyrosine, 4:1) substrate as a means for identifying agonists/antagonists of met transphosphorylation of the substrate.
1. Corning 96-well ELISA plates, Corning Catalog #25805-96.
2. Poly(glu-tyr), 4:1, Sigma, Cat. No; P 0275.
5. Blocking Buffer: Dissolve 25 g Bovine Serum Albumin, Sigma Cat. No A-7888, in 500 ml PBS, filter through a […] filter.
6. Purified GST fusion protein containing the Met kinase domain, SUGEN, Inc.
8. 10% aqueous (MilliQue H2O) DMSO.
9. 10 mM aqueous (dH2O) Adenosine-5′-triphosphate, Sigma Cat. No. A-5394.
10. 2×Kinase Dilution Buffer: for 100 ml, mix 10 mL 1M HEPES at pH 7.5 with 0.4 mL 5% BSA/PBS, 0.2 mL 0.1 M sodium orthovanadate and 1 mL 5M sodium chloride in 88.4 mL dH2O.
11. 4×ATP Reaction Mixture: for 10 mL, mix 0.4 mL 1 M manganese chloride and 0.02 mL 0.1 M ATP in 9.56 mL dH2O.
12. 4×Negative Controls Mixture: for 10 mL, mix 0.4 mL 1 M manganese chloride in 9.6 mL dH2O.
13. NUNC 96-well V bottom polypropylene plates, Applied Scientific Catalog #S-72092
15. Antibody Dilution Buffer: for 100 mL, mix 10 mL 5% BSA/PBS, 0.5 mL 5% Carnation® Instant Milk in PBS and 0.1 mL 0.1 M sodium orthovanadate in 88.4 mL TBST.
16. Rabbit polyclonal antophosphotyrosine antibody, SUGEN, Inc.
17. Goat anti-rabbit horseradish peroxidase conjugated antibody, Biosource, Inc.
18. ABTS Solution: for 1 L, mix 19.21 g citric acid, 35.49 g Na2HPO4 and 500 mg ABTS with sufficient dH2O to make 1 L.
19. ABTS/H2O2: mix 15 mL ABST solution with 2μL H2O2 five minutes before use.
1. Coat ELISA plates with 2 μg Poly(Glu-Tyr) in 100 μL PBS, hold overnight at 4° C.
2. Block plate with 150 μL of 5% BSA/PBS for 60 min.
3. Wash plate twice with PBS then once with 50 mM Hepes buffer pH 7.4.
4. Add 50 μl of the diluted kinase to all wells. (Purified kinase is diluted with Kinase Dilution Buffer. Final concentration should be 10 ng/well.)
5. Add 25 μL of the test compound (in 4% DMSO) or DMSO alone (4% in dH2O) for controls to plate.
6. Incubate the kinase/compound mixture for 15 minutes.
7. Add 25 μL of 40 mM MnCl2 to the negative control wells.
8. Add 25 μL ATP/MnCl2 mixture to the all other wells (except the negative controls). Incubate for 5 min.
9. Add 25 μL 500 mM EDTA to stop reaction.
10. Wash plate 3× with TBST.
11. Add 100 μL rabbit polyclonal anti-Ptyr diluted 1:10,000 in Antibody Dilution Buffer to each well. Incubate, with shaking, at room temperature for one hour.
12. Wash plate 3× with TBST.
13. Dilute Biosource HRP conjugated anti-rabbit antibody 1:6,000 in Antibody Dilution buffer. Add 100 μL per well and incubate at room temperature, with shaking, for one hour.
14. Wash plate 1× with PBS.
15. Add 100 μl of ABTS/H2O2 solution to each well.
16. If necessary, stop the development reaction with the addition of 100 μl of 0.2M HCl per well.
17. Read plate on Dynatech MR7000 ELISA reader with the test filter at 410 nM and the reference filter at 630 nM.

[3] = target: FGFR3 (Homo sapiens, UniProt P22607); test: FGFR3 kinase inhibition
Chain of FGFR3 (P22607 23-806, species assumed): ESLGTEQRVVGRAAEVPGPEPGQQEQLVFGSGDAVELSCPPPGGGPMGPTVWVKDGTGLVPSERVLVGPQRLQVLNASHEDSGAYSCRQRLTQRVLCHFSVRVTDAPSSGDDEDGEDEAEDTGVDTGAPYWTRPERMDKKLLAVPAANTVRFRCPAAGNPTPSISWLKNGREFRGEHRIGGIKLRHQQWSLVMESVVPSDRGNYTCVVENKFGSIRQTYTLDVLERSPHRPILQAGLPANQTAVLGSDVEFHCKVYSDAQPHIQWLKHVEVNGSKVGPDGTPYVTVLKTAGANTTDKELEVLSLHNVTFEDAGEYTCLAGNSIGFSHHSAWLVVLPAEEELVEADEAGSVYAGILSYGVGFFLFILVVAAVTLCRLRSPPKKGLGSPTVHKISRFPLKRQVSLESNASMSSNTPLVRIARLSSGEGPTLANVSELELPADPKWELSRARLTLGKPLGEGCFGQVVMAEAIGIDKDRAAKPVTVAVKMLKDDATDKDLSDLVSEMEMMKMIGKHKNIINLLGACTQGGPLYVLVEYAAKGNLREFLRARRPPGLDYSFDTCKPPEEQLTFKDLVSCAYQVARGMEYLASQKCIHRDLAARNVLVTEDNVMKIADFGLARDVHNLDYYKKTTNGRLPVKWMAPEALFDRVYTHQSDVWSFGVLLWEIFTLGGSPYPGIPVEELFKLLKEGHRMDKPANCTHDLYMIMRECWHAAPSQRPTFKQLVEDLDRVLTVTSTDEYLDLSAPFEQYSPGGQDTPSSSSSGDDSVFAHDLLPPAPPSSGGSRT

Chain of FGFR1 (P11362 22-822, species assumed): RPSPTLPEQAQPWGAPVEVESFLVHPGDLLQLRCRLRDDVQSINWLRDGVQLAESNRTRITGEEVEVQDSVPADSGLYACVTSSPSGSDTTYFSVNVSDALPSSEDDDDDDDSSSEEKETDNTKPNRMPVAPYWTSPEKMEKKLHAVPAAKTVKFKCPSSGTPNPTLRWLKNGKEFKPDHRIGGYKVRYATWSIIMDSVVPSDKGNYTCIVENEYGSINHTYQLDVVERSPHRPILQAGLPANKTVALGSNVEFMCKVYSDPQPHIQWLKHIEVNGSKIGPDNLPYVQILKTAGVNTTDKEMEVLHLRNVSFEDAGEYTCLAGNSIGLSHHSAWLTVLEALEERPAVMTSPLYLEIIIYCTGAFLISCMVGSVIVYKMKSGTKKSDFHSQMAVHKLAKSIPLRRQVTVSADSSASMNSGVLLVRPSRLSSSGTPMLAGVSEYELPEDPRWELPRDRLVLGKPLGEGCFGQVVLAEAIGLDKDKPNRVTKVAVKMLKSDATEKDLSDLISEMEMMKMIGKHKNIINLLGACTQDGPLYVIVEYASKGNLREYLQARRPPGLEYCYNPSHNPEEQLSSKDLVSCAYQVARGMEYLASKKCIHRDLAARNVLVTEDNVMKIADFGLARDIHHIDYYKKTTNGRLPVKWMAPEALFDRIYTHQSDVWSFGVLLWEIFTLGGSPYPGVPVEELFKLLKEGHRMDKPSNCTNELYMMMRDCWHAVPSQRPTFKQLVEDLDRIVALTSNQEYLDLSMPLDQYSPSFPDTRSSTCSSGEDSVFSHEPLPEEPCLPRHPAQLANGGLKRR

Row | Compound | IC50 [1] | IC50 [2] | IC50 [3]
1 | COc1ccc(-c2cccc3c2/C(=C/c2[nH]c(C)c(C(=O)N4C[C@@H](C)N[C@@H](C)C4)c2C)C(=O)N3)cc1 [Example 40, 3-[4-((cis)-3,5-Dimethyl-piperazine-1-carbonyl)-3,5-dimethyl-1H-pyrrol-2-ylmethylene]-4-(4-methoxy-phenyl)-1,3-dihydro-indol-2-one] | 190 nM | 270 nM | 380 nM
2 | CCOC(=O)c1c(C)[nH]c(/C=C2\C(=O)Nc3cccc(-c4cccc(F)c4)c32)c1CCCN1CCN(C)CC1 [Example 18, 5-[4-(3-Fluoro-phenyl)-2-oxo-1,2-dihydro-indol-3-ylidenemethyl]-2-methyl-4-[3-(4-methyl-piperazin-1-yl)-propyl]-1H-pyrrole-3-carboxylic Acid Ethyl Ester] | 1190 nM | 270 nM | 350 nM
3 | Cc1[nH]c(/C=C2\C(=O)Nc3cccc(-c4cccc(C(F)(F)F)c4)c32)c(C)c1C(=O)N1CCN(C)CC1 [Example 104, 3-[3,5-Dimethyl-4-(4-methyl-piperazine-1-carbonyl)-H-pyrrol-2-ylmethylene]-4-(3-trifluoromethyl-phenyl)-1,3-dihydro-indol-2-one] | 300 nM | 580 nM | –
4 | CCN(CC)CCNC(=O)c1c(C)[nH]c(/C=C2\C(=O)Nc3cccc(-c4ccc(OC(F)(F)F)cc4)c32)c1C [Example 140, 2,4-Dimethyl-5-[2-oxo-4-(4-trifluoromethoxy-phenyl)-1,2-dihydro-indol-3-ylidenemethyl]-1H-pyrrole-3-carboxylic Acid (2-Diethylamino-ethyl)-amide] | 520 nM | 680 nM | –
5 | Cc1[nH]c(/C=C2\C(=O)Nc3cccc(-c4ccc(F)cc4)c32)c(C)c1C(=O)NCCN1CCCC1 [Example 6, 5-[4-(4-Fluoro-phenyl)-2-oxo-1,2-dihydro-indol-3-ylidenemethyl]-2,4-dimethyl-1H-pyrrole-3-carboxylic Acid (2-Pyrrolidin-1-yl-ethyl)-amide] | 57 nM | 73 nM | –
6 | Cc1[nH]c(/C=C2\C(=O)Nc3cccc(-c4ccccc4F)c32)c(C)c1C(=O)N1CCN(C)CC1 [Example 93, 3-[3,5-Dimethyl-4-(4-methyl-piperazine-1-carbonyl)-1H-pyrrol-2-ylmethylene]-4-(2-fluoro-phenyl)-1,3-dihydro-indol-2-one] | 83 nM | 80 nM | –
7 | Cc1[nH]c(/C=C2\C(=O)Nc3cccc(-c4ccc(F)cc4)c32)c(C)c1C(=O)N1CCN(C)CC1 [Example 4, 3-[3,5-Dimethyl-4-(4-methyl-piperazine-1-carbonyl)-1H-pyrrol-2-ylmethylene]-4-(4-fluoro-phenyl)-1,3-dihydro-indol-2-one] | 740 nM | 700 nM | –
8 | Cc1cc(C(=O)N2CC[C@H](N(C)C)C2)c(/C=C2\C(=O)Nc3cccc(-c4ccc(F)cc4)c32)[nH]1 [Example 10, 3-[3-((S)-3-Dimethylamino-pyrrolidine-1-carbonyl)-5-methyl-1H-pyrrol-2-ylmethylene]-4-(4-fluoro-phenyl)-1,3-dihydro-indol-2-one] | 1540 nM | 230 nM | –
9 | Cc1cc(C(=O)NCCN2CCCC2)c(/C=C2\C(=O)Nc3cccc(-c4ccc(F)c(Cl)c4)c32)[nH]1 [Example 119, 2-[4-(3-Chloro-4-fluoro-phenyl)-2-oxo-1,2-dihydro-indol-3-ylidenemethyl]-5-methyl-1H-pyrrole-3-carboxylic Acid (2-Pyrrolidin-1-yl-ethyl)-amide] | 240 nM | 59 nM | –
10 | Cc1cc(C(=O)NCCn2ccnn2)c(/C=C2\C(=O)Nc3cccc(-c4ccccc4F)c32)[nH]1 [Example 99, 2-[4-(2-Fluoro-phenyl)-2-oxo-1,2-dihydro-indol-3-ylidenemethyl]-5-methyl-1H-pyrrole-3-carboxylic Acid (2-[1,2,3]Triazol-1-yl-ethyl)-amide] | 610 nM | 180 nM | –

The remaining lines, values ahead:

Row | IC50 [1] | IC50 [2] | IC50 [3] | Compound
11 | 21 nM | 110 nM | < 9.1 nM | CCN(CC)CCNC(=O)c1c[nH]c(/C=C2\C(=O)Nc3cccc(-c4ccc(Br)cc4)c32)c1C [Example 61, 5-[4-(4-Bromo-phenyl)-2-oxo-1,2-dihydro-indol-3-ylidenemethyl]-4-methyl-1H-pyrrole-3-carboxylic Acid (2-Diethylamino-ethyl)-amide]
12 | < 9.1 nM | 100 nM | 21 nM | CCN(CC)CCNC(=O)c1c(C)[nH]c(/C=C2\C(=O)Nc3cccc(-c4cccc(F)c4)c32)c1C [Example 13, 5-[4-(3-Fluoro-phenyl)-2-oxo-1,2-dihydro-indol-3-ylidenemethyl]-2,4-dimethyl-1H-pyrrole-3-carboxylic Acid (2-Diethylamino-ethyl)-amide]
13 | 57 nM | 140 nM | 74 nM | Cc1[nH]c(/C=C2\C(=O)Nc3cccc(-c4ccc(Cl)cc4)c32)c(C)c1C(=O)NCCN1CCCC1 [Example 22, 5-[4-(4-Chloro-phenyl)-2-oxo-1,2-dihydro-indol-3-ylidenemethyl]-2,4-dimethyl-1H-pyrrole-3-carboxylic Acid (2-Pyrrolidin-1-yl-ethyl)-amide]
14 | 31 nM | 78 nM | – | CCN(CC)CCNC(=O)c1c(C)[nH]c(/C=C2\C(=O)Nc3cccc(-c4ccccc4)c32)c1C [Example 3, 2,4-Dimethyl-5-(2-oxo-4-phenyl-1,2-dihydro-indol-3-ylidenemethyl)-1H-pyrrole-3-carboxylic Acid (2-Diethylamino-ethyl)-amide]
